Our source for the Kd values is patent US20260083851A1 (AVILAR THERAPEUTICS, INC., priority 2022, published 2026).

Bounds are passed on as bounds.

The term Kd denotes the constant that tells how readily two partners part at equilibrium.

The experiment has as its target T1, ASGP receptor (biotinylated ASGPR) (Homo sapiens, UniProt P07306).
T1 construct: biotin (biotinylated)
T1 sequence (P07306 1-291): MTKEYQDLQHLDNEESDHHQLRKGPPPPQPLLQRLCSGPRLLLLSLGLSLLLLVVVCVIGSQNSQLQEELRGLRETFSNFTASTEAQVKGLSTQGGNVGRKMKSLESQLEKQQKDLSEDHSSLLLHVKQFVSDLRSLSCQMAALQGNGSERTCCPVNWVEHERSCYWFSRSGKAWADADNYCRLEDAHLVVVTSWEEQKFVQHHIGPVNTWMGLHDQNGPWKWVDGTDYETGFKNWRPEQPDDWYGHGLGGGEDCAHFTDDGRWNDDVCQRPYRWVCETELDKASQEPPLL
It is filed as binding. The conditions noted are these: SPR, Biacore 8K, 25° C.; Table 1C; read-out: ASGPR KD.
As to `O[C@@H]1[C@H](O)[C@@H](Nc2cncc(C(F)(F)F)n2)CO[C@@H]1CN1Cc2ccccc2C1` [A231, (2R,3R,4R,5S)-2-(isoindolin-2-ylmethyl)-5-((6-(trifluoromethyl)pyrazin-2-yl)amino)tetrahydro-2H-pyran-3,4-diol], the Kd is below 10 µM.

For `O[C@@H]1[C@H](O)[C@@H](Nc2cncc(C(F)(F)F)n2)CO[C@@H]1CN1CCc2ccccc2C1` [A232, (2R,3R,4R,5S)-2-((3,4-dihydroisoquinolin-2(1H)-yl)methyl)-5-((6-(trifluoromethyl)pyrazin-2-yl)amino)tetrahydro-2H-pyran-3,4-diol], the Kd is below 10 µM.

As to `O[C@@H]1[C@H](O)[C@@H](Oc2cccc(C(F)(F)F)n2)CO[C@@H]1CN1CCCCC1` [A233, (2R,3R,4S,5S)-2-(piperidin-1-ylmethyl)-5-((6-(trifluoromethyl)pyridin-2-yl)oxy)tetrahydro-2H-pyran-3,4-diol], the dissociation constant (Kd) is below 10 µM.

In the case of `O[C@@H]1[C@H](O)[C@@H](Oc2cccc(C(F)(F)F)n2)CO[C@@H]1COc1ccccc1` [A234, (2R,3R,4S,5S)-2-(phenoxymethyl)-5-((6-(trifluoromethyl)pyridin-2-yl)oxy)tetrahydro-2H-pyran-3,4-diol], the Kd is below 10 µM.

In the case of `O[C@@H]1[C@H](O)[C@@H](Oc2cccc(C(F)(F)F)n2)CO[C@@H]1COc1ncccn1` [A235, (2R,3R,4S,5S)-2-((pyrimidin-2-yloxy)methyl)-5-((6-(trifluoromethyl)pyridin-2-yl)oxy)tetrahydro-2H-pyran-3,4-diol], the dissociation constant Kd is below 10 µM.

On to `O[C@@H]1[C@H](O)[C@@H](Nc2cccc(C(F)(F)F)n2)CO[C@@H]1COc1ccc(Br)cc1` [A236, (2R,3R,4R,5S)-2-((4-bromophenoxy)methyl)-5-((6-(trifluoromethyl)pyridin-2-yl)amino)tetrahydro-2H-pyran-3,4-diol], for which the Kd is below 10 µM.

As for `OC[C@H]1O[C@H](Oc2ccc(N3CCNCC3)cc2)[C@H](Oc2cccc(C(F)(F)F)n2)[C@@H](O)[C@H]1O` [A237], the dissociation constant Kd was below 10 µM.

With `O[C@@H]1[C@H](O)[C@@H](Oc2cccc(C(F)(F)F)n2)CO[C@@H]1COc1ccc(Br)cc1` [A238], the equilibrium dissociation constant (Kd) was below 10 µM.

`O[C@@H]1[C@H](O)[C@@H](Nc2cccc(C(F)(F)F)n2)CO[C@@H]1COc1cnccn1` [A239]: the dissociation constant Kd was below 10 µM.

For `O[C@@H]1[C@H](O)[C@@H](Nc2cccc(C(F)(F)F)n2)CO[C@@H]1CN1CCCC1` [A240], the dissociation constant Kd is below 10 µM.

With `O[C@@H]1[C@H](O)[C@@H](Nc2cccc(C(F)(F)F)n2)CO[C@@H]1CN1CCCCC1` [A241], the dissociation constant Kd was below 10 µM.

Turning to `O[C@@H]1[C@H](O)[C@@H](Oc2cccc(C(F)(F)F)n2)CO[C@@H]1CN1CCN(c2ccccc2)CC1` [A242], the Kd was below 10 µM.

`O[C@@H]1[C@H](O)[C@@H](Nc2cccc(C(F)(F)F)n2)CO[C@@H]1COc1ccccc1` [A243]: the Kd is below 10 µM.

With `O=C(O)c1cnc(OC[C@H]2OC[C@H](Oc3cccc(C(F)(F)F)n3)[C@@H](O)[C@H]2O)cn1` [A244], the dissociation constant (Kd) was below 10 µM.

For `O[C@@H]1[C@H](O)[C@@H](Oc2cccc(C(F)(F)F)n2)CO[C@@H]1CN1CCC1` [A245], the Kd was below 10 µM.

As for `O=C(O)c1ccc(OC[C@H]2OC[C@H](Oc3cccc(C(F)(F)F)n3)[C@@H](O)[C@H]2O)nn1` [A246], the equilibrium dissociation constant (Kd) is below 10 µM.

With `O[C@@H]1[C@H](O)[C@@H](Oc2cccc(C(F)(F)F)n2)CO[C@@H]1COc1ccc(N2CCNCC2)c(F)c1` [A247], the dissociation constant Kd is below 10 µM.

For the compound `CN1CCN(C[C@H]2OC[C@H](Oc3cccc(C(F)(F)F)n3)[C@@H](O)[C@H]2O)CC1` [A249], the dissociation constant Kd is below 10 µM.

As to `OC[C@H]1O[C@H](c2ccc(N3CCNCC3)cc2)[C@H](Oc2cccc(C(F)(F)F)n2)[C@@H](O)[C@H]1O` [A250], the Kd was below 10 µM.

Consider `O=C(O)c1c(F)cc(CN2CCN(C[C@H]3OC[C@H](Nc4cncc(C(F)(F)F)n4)[C@@H](O)[C@H]3O)CC2)cc1F` [A251], for which the dissociation constant (Kd) was below 10 µM.

In the case of `C[C@H]1O[C@H](c2ccccc2)[C@H](Oc2cccc(C(F)(F)F)n2)[C@@H](O)[C@H]1O` [A252], the Kd is below 10 µM.

Consider `O[C@@H]1[C@H](O)[C@@H](Oc2cccc(C(F)(F)F)n2)CO[C@@H]1CN1CCc2ccccc2C1` [A254], for which the equilibrium dissociation constant (Kd) is below 10 µM.

Regarding `O=C(O)c1ccc(-c2ccc(OC[C@H]3OC[C@H](Oc4cccc(C(F)(F)F)n4)[C@@H](O)[C@H]3O)nn2)cc1` [A255], the Kd is below 10 µM.

Regarding `CC(C)(C)OC(=O)N1CC(Cc2ccc(OC[C@H]3OC[C@H](Oc4cccc(C(F)(F)F)n4)[C@@H](O)[C@H]3O)nn2)C1` [A256], the equilibrium dissociation constant (Kd) was below 10 µM.

With `O[C@@H]1[C@H](O)[C@@H](Oc2cccc(C(F)(F)F)n2)CO[C@@H]1CN1CCN(c2ccc(Br)nn2)CC1` [A257], the equilibrium dissociation constant (Kd) is below 10 µM.

For `O=C1CCCN1C[C@H]1OC[C@H](Oc2cccc(C(F)(F)F)n2)[C@@H](O)[C@H]1O` [A258], the Kd is below 10 µM.

Take `O[C@@H]1[C@H](O)[C@@H](Oc2cccc(C(F)(F)F)n2)CO[C@@H]1CN1CCN(c2ccccn2)CC1` [A259]: the Kd was below 10 µM.

In the case of `CC(C)(C)OC(=O)N1CC2CN(C[C@H]3OC[C@H](Oc4cccc(C(F)(F)F)n4)[C@@H](O)[C@H]3O)CC21` (stereo partly drawn) [A261], the Kd is below 10 µM.

As for `CC(C)(C)OC(=O)N1CC2CN(C[C@H]3OC[C@H](Oc4cccc(C(F)(F)F)n4)[C@@H](O)[C@H]3O)CC2C1` (stereo partly drawn) [A262], the Kd is below 10 µM.

In the case of `O=C1c2ncccc2CN1C[C@H]1OC[C@H](Oc2cccc(C(F)(F)F)n2)[C@@H](O)[C@H]1O` [A263], the dissociation constant (Kd) is below 10 µM.

On to `O[C@@H]1[C@H](O)[C@@H](Oc2cccc(C(F)(F)F)n2)CO[C@@H]1CN1CCN(c2cccnn2)CC1` [A264], for which the dissociation constant Kd is below 10 µM.

`O=C1c2ccccc2CN1C[C@H]1OC[C@H](Oc2cccc(C(F)(F)F)n2)[C@@H](O)[C@H]1O` [A265]: the Kd is below 10 µM.

For the compound `CC(C)(C)OC(=O)N1CCC2(CC1)CN(C[C@H]1OC[C@H](Oc3cccc(C(F)(F)F)n3)[C@@H](O)[C@H]1O)C2` [A267], the Kd was below 10 µM.

With `O[C@@H]1[C@H](O)[C@@H](Nc2cccc(C(F)(F)F)n2)CO[C@@H]1CN1CCc2ccccc2C1` [A268], the dissociation constant Kd is below 10 µM.

Take `O[C@@H]1[C@@H](Nc2cncc(C(F)(F)F)n2)[C@H]2OC[C@](COc3cnccn3)(O2)[C@@H]1O` [A269]: the Kd was below 10 µM.

`O[C@@H]1[C@H](O)[C@@H](Oc2cccc(C(F)(F)F)n2)CO[C@@H]1CN1CCN(c2ncccn2)CC1` [A270]: the dissociation constant Kd is below 10 µM.

For the compound `CC(C)(C)OC(=O)N1CCC2CN(C[C@H]3OC[C@H](Oc4cccc(C(F)(F)F)n4)[C@@H](O)[C@H]3O)CC2C1` (stereo partly drawn) [A271], the Kd was below 10 µM.

For the compound `O=C1c2c(F)cccc2CN1C[C@H]1OC[C@H](Oc2cccc(C(F)(F)F)n2)[C@@H](O)[C@H]1O` [A272], the dissociation constant (Kd) was below 10 µM.

With `O=C1c2ccc(F)cc2CN1C[C@H]1OC[C@H](Oc2cccc(C(F)(F)F)n2)[C@@H](O)[C@H]1O` [A273], the Kd was below 10 µM.

Turning to `O[C@@H]1[C@H](O)[C@@H](Oc2cccc(C(F)(F)F)n2)CO[C@@H]1CN1Cc2ccccc2C1` [A274], the Kd is below 10 µM.

`O[C@@H]1[C@H](O)[C@@H](Oc2cccc(C(F)(F)F)n2)CO[C@@H]1CN1CCN(c2cccnc2)CC1` [A275]: the Kd was below 10 µM.

Turning to `O=C(O)c1ccc(N2CCN(C[C@H]3OC[C@H](Oc4cccc(C(F)(F)F)n4)[C@@H](O)[C@H]3O)CC2)nn1` [A276], the equilibrium dissociation constant (Kd) is below 10 µM.

Regarding `O=C1c2ccccc2CN1C[C@H]1OC[C@H](Nc2cccc(C(F)(F)F)n2)[C@@H](O)[C@H]1O` [A277], the dissociation constant (Kd) was below 10 µM.

As for `O[C@@H]1[C@H](O)[C@@H](Nc2cccc(C(F)(F)F)n2)CO[C@@H]1CN1CCC1` [A279], the dissociation constant (Kd) is below 10 µM.

With `CC(C)(C)OC(=O)N1CCC(Cc2ccc(OC[C@H]3OC[C@H](Oc4cccc(C(F)(F)F)n4)[C@@H](O)[C@H]3O)nn2)CC1` [A280], the Kd is below 10 µM.

For `O=C(O)c1ccc(OC[C@@]23CO[C@@H](O2)[C@H](Nc2cncc(C(F)(F)F)n2)[C@@H](O)[C@H]3O)nn1` [A281], the equilibrium dissociation constant (Kd) was below 10 µM.

Turning to `O[C@@H]1[C@H](O)[C@@H](Oc2cccc(C(F)(F)F)n2)CO[C@@H]1CN1CCN(c2ccncn2)CC1` [A284], the dissociation constant (Kd) is below 10 µM.

For `O=C1CCCN1C[C@H]1OC[C@H](Nc2cccc(C(F)(F)F)n2)[C@@H](O)[C@H]1O` [A285], the Kd is below 10 µM.

Consider `C[C@H]1O[C@H](C#CCO)[C@H](Oc2cccc(C(F)(F)F)n2)[C@@H](O)[C@H]1O` [A286], for which the Kd is below 10 µM.

As to `O[C@@H]1[C@H](O)[C@@H](Oc2cccc(C(F)(F)F)n2)CO[C@@H]1COc1ccccn1` [A287], the dissociation constant (Kd) is below 10 µM.

In the case of `O[C@@H]1[C@H](O)[C@@H](Oc2cccc(C(F)(F)F)n2)CO[C@@H]1COc1ccnnc1` [A288], the Kd is below 10 µM.

Take `O[C@@H]1[C@H](O)[C@@H](Oc2cccc(C(F)(F)F)n2)CO[C@@H]1COc1cncnc1` [A289]: the dissociation constant Kd was below 10 µM.

With `O=C1c2occc2CN1C[C@H]1OC[C@H](Oc2cccc(C(F)(F)F)n2)[C@@H](O)[C@H]1O` [A290], the Kd was below 10 µM.

For the compound `O=C1c2sccc2CN1C[C@H]1OC[C@H](Oc2cccc(C(F)(F)F)n2)[C@@H](O)[C@H]1O` [A291], the equilibrium dissociation constant (Kd) was below 10 µM.

For `O[C@@H]1[C@H](O)[C@@H](Oc2cccc(C(F)(F)F)n2)CO[C@@H]1COc1ccncc1` [A292], the equilibrium dissociation constant (Kd) was below 10 µM.

With `O[C@@H]1[C@H](O)[C@@H](Oc2cccc(C(F)(F)F)n2)CO[C@@H]1CN1CCN(c2cncnc2)CC1` [A293], the Kd is below 10 µM.

`CC(C)(C)OC(=O)N1CCC(Cc2ccc(OC[C@H]3OC[C@H](Oc4cccc(C(F)(F)F)n4)[C@@H](O)[C@H]3O)nn2)C1` (stereo partly drawn) [A294]: the Kd was below 10 µM.
